# According to article PMC10343752, “Anti-α-Glucosidase, SAR Analysis, and Mechanism Investigation of Indolo[1,2-b]isoquinoline Derivatives” (Molecules, 2023):
# Assays:
# [1] = biological target: T1, α-glucosidase from Saccharomyces cerevisiae (Saccharomyces cerevisiae, UniProt P53341); assay: biochemical; format: biochemical; conditions: for IC50: α-glucosidase 0.1 U/mL, PNPG 0.25 mM, pH 6.8, 37 °C, read-out: α-Glucosidase inhibitory activity IC50
# T1 construct: purchased Sigma-Aldrich
# Method: (§1) α-Glucosidase from Saccharomyces cerevisiae (EC 3.2.1.20) was purchased from Sigma-Aldrich. p-Nitrophenyl-α-D-[…] (PNPG) was obtained from Abcam. Other reagents were commercially available.
# After the addition of PNPG (0.25 mM), the change in absorbance was measured at 405 nm. […] All experiments were performed four times.
# α-glucosidase [2] = biological target: T2, α-glucosidase (Saccharomyces cerevisiae, UniProt P53341); assay: α-glucosidase inhibition kinetics (enzyme kinetics and Lineweaver-Burk substrate kinetics); format: biochemical; conditions: for inhibition type (substrate kinetics): Lineweaver-Burk plots; for Ki / Kis / Vmax: inhibition kinetics constant; for reversibility of inhibition (enzyme kinetics): plots of remaining enzyme activity versus enzyme concentration
# T2 construct: purchased Sigma-Aldrich
# T2 sequence (P53341 whole entry): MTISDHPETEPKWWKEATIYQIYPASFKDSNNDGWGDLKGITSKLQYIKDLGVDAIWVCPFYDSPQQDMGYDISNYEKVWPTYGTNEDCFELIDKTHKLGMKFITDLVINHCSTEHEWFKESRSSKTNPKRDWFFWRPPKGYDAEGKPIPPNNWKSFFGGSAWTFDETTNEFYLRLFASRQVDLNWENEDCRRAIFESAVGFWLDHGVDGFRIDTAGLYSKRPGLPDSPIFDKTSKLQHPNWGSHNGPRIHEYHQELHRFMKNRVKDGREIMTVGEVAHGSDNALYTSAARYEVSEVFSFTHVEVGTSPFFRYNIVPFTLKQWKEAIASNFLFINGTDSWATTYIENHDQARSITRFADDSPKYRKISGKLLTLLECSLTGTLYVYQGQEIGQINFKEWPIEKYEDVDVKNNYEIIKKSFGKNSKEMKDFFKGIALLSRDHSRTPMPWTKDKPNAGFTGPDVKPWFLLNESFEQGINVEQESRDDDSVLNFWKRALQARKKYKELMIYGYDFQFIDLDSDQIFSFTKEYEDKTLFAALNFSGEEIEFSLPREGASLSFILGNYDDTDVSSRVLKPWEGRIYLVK
# Source text: Compounds 9, 11, 13, 18, and 19 with different α-glucosidase inhibitory activity were selected as representative compounds to reveal the inhibition mechanism of indolo[1,2-b]isoquinoline derivatives (1–21) on α-glucosidase by the implementation of an inhibition kinetics study. […] For substrate kinetics (Figure 5b,d,f,h,j), the Lineweaver-Burk plots of remaining enzyme activity versus […] treated with compounds 9, 11, 13, 18, and 19 intersected at one point in the second quadrant, respectively. The inhibition kinetics study was an effective method by which to understand the inhibition mechanism of the inhibitor against the target protein. In a substrate kinetics study, different inhibition mechanisms of inhibitors manifested as different intersection positions of Lineweaver-Burk plots. […] Moreover, compounds 9, 11, 13, 18, and 19 bind with both free enzyme and enzyme-substrate complexes to inhibit α-glucosidase. The inhibition kinetics constants of compounds 9, 11, 13, 18, and 19 were obtained and are listed in Table 2, including Ki, Kis, Km, and Vmax values, which might be helpful to understand the inhibition mechanism.
# as §1
# The kinetics of enzyme inhibition for compounds 9, 11, 13, 18, and 19 were obtained by plotting the enzymatic reaction rate versus enzyme concentration with or without compounds 9, 11, 13, 18, and 19, and the kinetics of substrate inhibition were measured using Lineweaver Burk plots of the enzymatic reaction rate versus substrate concentration with or without compounds 9, 11, 13, 18, and 19 [37, 38, 39, 40].
# α-glucosidase [3] = biological target: T2, α-glucosidase; assay: 3D fluorescence spectra of α-glucosidase with compounds; format: binding; conditions: α-glucosidase 5 μM
# Source text: The 3D fluorescence spectra of α-glucosidase with compounds 9, 11, 13, 18, and 19 was investigated to analyze the effect of compounds on the structure of α-glucosidase, respectively. Two important characteristic peaks appeared in the 3D fluorescence spectra of α-glucosidase (Figure 6a,c,e,g,i), including Peak 1 ([…]), corresponding to the main chain structure of the polypeptide, and Peak 2 ([…]), corresponding to tyrosine and tryptophan residues. […] (Figure 6b,d,f,h,j). Previously, 3D fluorescence spectra have been used to determine protein conformation changes.
# as §1
# Compounds 9, 11, 13, 18, and 19 were added to α-glucosidase (5 μM) in 100 μL of PBS and incubated for 5 min, then the 3D fluorescence spectra of the mixture were recorded [32]^. The excitation and emission wavelengths were 200–500 nm and the slit width was 2.5 nm. All data were imported into Matlab for processing.
# α-glucosidase [4] = biological target: T2, α-glucosidase; assay: CD spectra, secondary structure contents of α-glucosidase; format: binding; conditions: for effect on CD band intensity of α-glucosidase: 190~280 nm
# Source text: CD spectra were also monitored to study the effect of compounds 9, 11, 13, 18, and 19 on the conformational changes of α-glucosidase. As shown in Figure 7a–e, α-glucosidase presented two negative CD bands in the region of 190~280 nm, which was owed to the electronic transitions of n→π* of α-helical bonds. […] While treatment of compounds 9, 13, 18, and 19 led to an increase of α-helix and a reduction of β-sheet, β-turn, and random coils, respectively (Table 3). CD spectra have been an important method by which to study protein structural changes and secondary structural content. Previous research has shown that the interaction of an inhibitor with α-glucosidase caused the partial folding and loosening of the α-glucosidase structure.
# as §1
# Compounds 9, 11, 13, 18, and 19 with different concentrations were added into α-glucosidase solution (31 μM) and incubated for 5 min, respectively, then the CD spectra of the mixture were recorded. CDNN was used to analyze the ratio of protein secondary conformations.
# hepatocytes LO2 cells = assay: In vitro cytotoxicity, MTT method; format: cell-based; conditions: 24 h, up to a concentration of 32 μM
# Method: The in vitro cytotoxicity of compounds 9, 11, 13, 18, and 19 against hepatocytes LO2 cells was detected using the MTT method.
# The in vitro cytotoxicity of compound 11 against hepatocytes LO2 cells was assayed using the MTT method. LO2 cells were cultured in DMEM containing 10% FBS, 100 IU/mL penicillin, and 100 IU/mL streptomycin at 37 °C under 5% CO2. An amount of 100 μL of LO2 cells was seeded into a 96-well plate (5000 per well) for 24 h, and was then treated with compounds 9, 11, 13, 18, and 19 for 24 h, respectively. Then, MTT solution was added into each well and incubated for 4 h. An amount of […] of DMSO was used to dissolve the obtained crystallization. Then, this absorbance was determined at 490 nm. Each sample was performed in triplicate.
# [5] = molar ratio [α-Glu]:[Comp.] 1:1
# [6] = molar ratio [α-Glu]:[Comp.] 1:2
# [7] = molar ratio [α-Glu]:[Comp.] 1:3
# T1 sequence (P53341 whole entry): as above
structure (smiles),measurement,setting,value
O=C1c2ccccc2-n2c1c(-c1ccccc1)c1ccccc1c2=O [Compound 1],IC50,[1],23.46 ± 0.23 µM
Cc1ccc(-c2c3n(c(=O)c4ccccc24)-c2ccccc2C3=O)cc1 [Compound 2],IC50,[1],17.4 ± 0.25 µM
Cc1cccc(-c2c3n(c(=O)c4ccccc24)-c2ccccc2C3=O)c1 [Compound 3],IC50,[1],9.25 ± 0.14 µM
Cc1ccccc1-c1c2n(c(=O)c3ccccc13)-c1ccccc1C2=O [Compound 4],IC50,[1],22.3 ± 0.63 µM
CCc1ccc(-c2c3n(c(=O)c4ccccc24)-c2ccccc2C3=O)cc1 [Compound 5],IC50,[1],16.1 ± 0.46 µM
CC(C)(C)c1ccc(-c2c3n(c(=O)c4ccccc24)-c2ccccc2C3=O)cc1 [Compound 6],IC50,[1],5.76 ± 0.26 µM
O=C1c2ccccc2-n2c1c(-c1ccc(Cl)cc1)c1ccccc1c2=O [Compound 7],IC50,[1],14.7 ± 0.37 µM
COc1ccc(-c2c3n(c(=O)c4ccccc24)-c2ccccc2C3=O)cc1 [Compound 8],IC50,[1],15.1 ± 0.44 µM
CN(C)c1ccc(-c2c3n(c(=O)c4ccccc24)-c2ccccc2C3=O)cc1 [Compound 9],IC50,[1],40.9 ± 0.69 µM
same,inhibition type (substrate kinetics),α-glucosidase [2],mixed-type inhibition
same,Ki,α-glucosidase [2],30.5 µM
same,Kis,α-glucosidase [2],96.19 µM
same,Vmax,α-glucosidase [2],0.12 µM/min/mg
same,reversibility of inhibition (enzyme kinetics),α-glucosidase [2],reversible
same,effect on fluorescence intensity of Peak 1 and Peak 2 of α-glucosidase,α-glucosidase [3],decrease the fluorescence intensity
same,effect on CD band intensity of α-glucosidase,α-glucosidase [4],decrease in CD band intensity
same,Rndm Coil,α-glucosidase [4]; [5],35.10%
same,α-Helix,α-glucosidase [4]; [5],10.80%
same,β-Sheet,α-glucosidase [4]; [5],35.60%
same,β-Turn,α-glucosidase [4]; [5],19.30%
same,Rndm Coil,α-glucosidase [4]; [6],34.60%
same,α-Helix,α-glucosidase [4]; [6],13.00%
same,β-Sheet,α-glucosidase [4]; [6],31.90%
same,β-Turn,α-glucosidase [4]; [6],19.30%
same,Rndm Coil,α-glucosidase [4]; [7],33.40%
same,α-Helix,α-glucosidase [4]; [7],13.10%
same,β-Sheet,α-glucosidase [4]; [7],31.70%
same,β-Turn,α-glucosidase [4]; [7],19.10%
same,effect on cell viability,hepatocytes LO2 cells,no significant effect on cell viability
O=C1c2ccccc2-n2c1c(-c1ccccc1Cl)c1ccccc1c2=O [Compound 10],IC50,[1],12.2 ± 0.46 µM
O=C1c2ccccc2-n2c1c(-c1ccc3ccccc3c1)c1ccccc1c2=O [Compound 11],"anti-α-glucosidase activity, times stronger than acarbose",[1],~ 186 times
same,IC50,[1],3.44 ± 0.36 µM
same,inhibition type (substrate kinetics),α-glucosidase [2],mixed-type inhibition
same,Ki,α-glucosidase [2],0.46 µM
same,Kis,α-glucosidase [2],14.57 µM
same,Vmax,α-glucosidase [2],0.06 µM/min/mg
same,reversibility of inhibition (enzyme kinetics),α-glucosidase [2],reversible
same,effect on fluorescence intensity of Peak 1 and Peak 2 of α-glucosidase,α-glucosidase [3],decrease the fluorescence intensity
same,effect on CD band intensity of α-glucosidase,α-glucosidase [4],concentration-dependent increase in the CD band intensity
same,Rndm Coil,α-glucosidase [4]; [5],35.60%
same,α-Helix,α-glucosidase [4]; [5],8.40%
same,β-Sheet,α-glucosidase [4]; [5],34.30%
same,β-Turn,α-glucosidase [4]; [5],20.00%
same,Rndm Coil,α-glucosidase [4]; [6],35.60%
same,α-Helix,α-glucosidase [4]; [6],8.20%
same,β-Sheet,α-glucosidase [4]; [6],34.70%
same,β-Turn,α-glucosidase [4]; [6],20.00%
same,Rndm Coil,α-glucosidase [4]; [7],35.80%
same,α-Helix,α-glucosidase [4]; [7],7.80%
same,β-Sheet,α-glucosidase [4]; [7],35.20%
same,β-Turn,α-glucosidase [4]; [7],20.10%
same,effect on cell viability,hepatocytes LO2 cells,no significant effect on cell viability
COC(=O)c1ccc(-c2c3n(c(=O)c4ccccc24)-c2ccccc2C3=O)cc1 [Compound 12],IC50,[1],32.8 ± 0.72 µM
O=C1c2cc(Cl)ccc2-n2c1c(-c1ccccc1)c1ccccc1c2=O [Compound 13],IC50,[1],6.35 ± 0.25 µM
same,inhibition type (substrate kinetics),α-glucosidase [2],mixed-type inhibition
same,Ki,α-glucosidase [2],3.62 µM
same,Kis,α-glucosidase [2],11.65 µM
same,Vmax,α-glucosidase [2],0.08 µM/min/mg
same,reversibility of inhibition (enzyme kinetics),α-glucosidase [2],reversible
same,effect on fluorescence intensity of Peak 1 and Peak 2 of α-glucosidase,α-glucosidase [3],decrease the fluorescence intensity
same,effect on CD band intensity of α-glucosidase,α-glucosidase [4],decrease in CD band intensity
same,Rndm Coil,α-glucosidase [4]; [5],35.60%
same,α-Helix,α-glucosidase [4]; [5],8.80%
same,β-Sheet,α-glucosidase [4]; [5],40.60%
same,β-Turn,α-glucosidase [4]; [5],19.30%
same,Rndm Coil,α-glucosidase [4]; [6],35.40%
same,α-Helix,α-glucosidase [4]; [6],9.10%
same,β-Sheet,α-glucosidase [4]; [6],39.60%
same,β-Turn,α-glucosidase [4]; [6],19.40%
same,Rndm Coil,α-glucosidase [4]; [7],35.10%
same,α-Helix,α-glucosidase [4]; [7],11.20%
same,β-Sheet,α-glucosidase [4]; [7],34.60%
same,β-Turn,α-glucosidase [4]; [7],19.60%
same,effect on cell viability,hepatocytes LO2 cells,no significant effect on cell viability
Cc1ccc2c(c1)-n1c(c(-c3ccccc3)c3ccccc3c1=O)C2=O [Compound 14],IC50,[1],17 ± 0.37 µM
O=C1c2ccc(Cl)cc2-n2c1c(-c1ccccc1)c1ccccc1c2=O [Compound 15],IC50,[1],9.25 ± 0.41 µM
O=C1c2cc(F)ccc2-n2c1c(-c1ccccc1)c1ccccc1c2=O [Compound 16],IC50,[1],10.1 ± 0.36 µM
Cc1ccc2c(=O)n3c(c(-c4ccccc4)c2c1)C(=O)c1ccccc1-3 [Compound 17],IC50,[1],7.95 ± 0.43 µM
O=C1c2ccccc2-n2c1c(-c1ccccc1)c1ccc(F)cc1c2=O [Compound 18],IC50,[1],7.97 ± 0.31 µM
same,inhibition type (substrate kinetics),α-glucosidase [2],mixed-type inhibition
same,Ki,α-glucosidase [2],4.62 µM
same,Kis,α-glucosidase [2],12.34 µM
same,Vmax,α-glucosidase [2],0.08 µM/min/mg
same,reversibility of inhibition (enzyme kinetics),α-glucosidase [2],reversible
same,effect on fluorescence intensity of Peak 1 and Peak 2 of α-glucosidase,α-glucosidase [3],decrease the fluorescence intensity
same,effect on CD band intensity of α-glucosidase,α-glucosidase [4],decrease in CD band intensity
same,Rndm Coil,α-glucosidase [4]; [5],35.00%
same,α-Helix,α-glucosidase [4]; [5],11.10%
same,β-Sheet,α-glucosidase [4]; [5],35.30%
same,β-Turn,α-glucosidase [4]; [5],19.40%
same,Rndm Coil,α-glucosidase [4]; [6],35.00%
same,α-Helix,α-glucosidase [4]; [6],11.20%
same,β-Sheet,α-glucosidase [4]; [6],35.00%
same,β-Turn,α-glucosidase [4]; [6],19.30%
same,Rndm Coil,α-glucosidase [4]; [7],34.70%
same,α-Helix,α-glucosidase [4]; [7],12.80%
same,β-Sheet,α-glucosidase [4]; [7],35.00%
same,β-Turn,α-glucosidase [4]; [7],19.30%
same,effect on cell viability,hepatocytes LO2 cells,no significant effect on cell viability
Cc1ccc2c(c1)-n1c(c(-c3ccccc3)c3cc(C)ccc3c1=O)C2=O [Compound 19],IC50,[1],41.2 ± 0.76 µM
same,inhibition type (substrate kinetics),α-glucosidase [2],mixed-type inhibition
same,Ki,α-glucosidase [2],8.38 µM
same,Kis,α-glucosidase [2],42.30 µM
same,Vmax,α-glucosidase [2],0.05 µM/min/mg
same,reversibility of inhibition (enzyme kinetics),α-glucosidase [2],reversible
same,effect on fluorescence intensity of Peak 1 and Peak 2 of α-glucosidase,α-glucosidase [3],decrease the fluorescence intensity
same,effect on CD band intensity of α-glucosidase,α-glucosidase [4],decrease in CD band intensity
same,Rndm Coil,α-glucosidase [4]; [5],34.60%
same,α-Helix,α-glucosidase [4]; [5],12.90%
same,β-Sheet,α-glucosidase [4]; [5],31.80%
same,β-Turn,α-glucosidase [4]; [5],19.40%
same,Rndm Coil,α-glucosidase [4]; [6],34.70%
same,α-Helix,α-glucosidase [4]; [6],11.50%
same,β-Sheet,α-glucosidase [4]; [6],34.20%
same,β-Turn,α-glucosidase [4]; [6],19.30%
same,Rndm Coil,α-glucosidase [4]; [7],34.90%
same,α-Helix,α-glucosidase [4]; [7],12.80%
same,β-Sheet,α-glucosidase [4]; [7],34.40%
same,β-Turn,α-glucosidase [4]; [7],19.30%
same,effect on cell viability,hepatocytes LO2 cells,no significant effect on cell viability
Cc1ccc2c(=O)n3c(c(-c4ccccc4)c2c1)C(=O)c1cc(F)ccc1-3 [Compound 20],IC50,[1],11.9 ± 0.36 µM
